Results from patent US20260053811A1, “METHODS OF TREATING HYPERTENSION IN OBESE SUBJECTS” (Mineralys Therapeutics, Inc., priority 2022, published 2026).

System: hypertensive subjects
Test: Seated automated office blood pressure (AOBP) in randomized, placebo-controlled, dose-ranging study
Type: in vivo, human
Details: 100 mg QD; for Mean Automated Office-Measured Systolic Blood Pressure at Wk 8 / Mean Change from Baseline at Week 8 in Automated Office-Measured Systolic Blood Pressure / Automated Office-Measured Diastolic Blood Pressure, Week 8, mean / Change from Baseline at Week 8 in Automated Office-Measured Diastolic Blood Pressure, mean: Part 2
Experimental: A randomized, double-blinded, placebo-controlled, dose-ranging, multicenter study was conducted to evaluate the effect of orally administered Compound A HBr on blood pressure for the treatment of hypertension in male and female subjects ≥18 years of age.
The study consists of two parts. For enrollment into Part 1 of the study, a subject's value of plasma renin activity (PRA) must be ≤1 ng/mL/h based on morning measurement. If the value of PRA >1 ng/mL/h based on morning measurement, then subjects may be eligible to enter Part 2 of the study.
For Part 1, 163 enrolled subjects ≥18 years of age were randomized into 6 equal treatment groups (1:1:1:1:1:1) to 12.5 mg BID, 25 mg BID, 12.5 mg QD, 50 mg QD, 100 mg QD, or placebo. After a review of interim clinical data, the 2 lowest dose levels (12.5 mg QD and 12.5 mg BID) were stopped for future randomization due to a lack of consistent meaningful reduction of blood pressure, but the patients randomized to that point remained in the study through completion. Thus, after the review of interim clinical data, subjects were randomized into 4 equal treatment groups (1:1:1:1) to 25 mg BID, 50 mg QD, 100 mg QD, or placebo.
For Part 2, 36 enrolled subjects ≥18 years of age were randomized (5:1) to either 100 mg QD Compound A HBr or placebo such that the Compound A HBr treatment group consisted of approximately 30 subjects and the placebo treatment group will consist of approximately 6 subjects.
Subjects orally administered the assigned study drug (Compound A HBr or placebo) according to the assigned dosing regimen for 8 weeks beginning on Study Day 1. All subjects in Part 1 (regardless of dosing group) received BID dosing to preserve the integrity of the blind; active drug is administered as the morning dose for all QD dose groups. Subjects returned to the research facility or were seen by the clinical investigator or approved home health care professional at the end of Study Weeks 1, 2, 3, 4, 5, 6, 7, and 8 (±2 days) for protocol-defined efficacy and safety assessments and procedures, assessment of adverse events (AEs), and confirmation of compliance with study drug usage. Subjects also completed a telephone visit and blood pressure (BP) check at home approximately 3 days post last dose of study drug. Subjects attended up to 14 full clinic visits, including a pre-Screening visit, a Screening/start of Placebo Run-in visit, a second visit during Placebo Run-in, a clinic visit to initiate the ABPM procedure, a Randomization visit, 8 weekly visits during double-blind treatment, and an end-of-study visit scheduled 4 weeks after the last study treatment for final efficacy and safety assessments.
An automated oscillometric sphygmomanometer device was used to measure the subjects' systolic and diastolic blood pressure in office after approximately 5 minutes of rest in the seated position.
The primary endpoint is the change in office-measured (mean of last 2 of 5 unattended measurements using an automated oscillometric sphygmomanometer device after approximately 5 minutes of rest in the seated position) systolic blood pressure (SBP) from baseline to the end of Study Week 8.
Secondary endpoints of this study were: • (a) Change in 24-hour ambulatory blood pressure monitoring (ABPM) parameters (systolic and diastolic) from baseline to the end of Study Week 7. • (b) Change in office-measured SBP from baseline to the end of Study Weeks 1, 2, 3, 4, 5, 6, and 7. • (c) Change in office-measured diastolic blood pressure (DBP) from baseline to the end of Study Weeks 1, 2, 3, 4, 5, 6, 7, and 8. • (d) Proportion of subjects who achieve office-measured BP of ≤130/80 mm Hg by the end of Study Week 8.

[1] = Part 1, Thiazide Diuretic Use at Baseline No
[2] = Part 1, Thiazide Diuretic Use at Baseline Yes
[3] = Systolic Blood Pressure Tertile at Baseline High
[4] = Systolic Blood Pressure Tertile at Baseline Low
[5] = Systolic Blood Pressure Tertile at Baseline Middle
[6] = Thiazide Diuretic Use at Baseline No
[7] = Thiazide Diuretic Use at Baseline Yes

## CC(=O)N[C@H]1CC[C@H](NC(=O)CN2CCN(c3nncc(-c4ccc(C)cc4)n3)CC2)CC1 [Compound A HBr]
[1]
  Mean (SD) Change from Baseline at Week 8 in Automated Office-Measured Diastolic Blood Pressure: −4.00 (6.33) mmHg
  Mean (SD) Change from Baseline at Week 8 in Automated Office-Measured Systolic Blood Pressure: −9.15 (9.27) mmHg
[2]
  Automated Office-Measured Diastolic Blood Pressure, Week 8, Mean (SD): 73.40 (8.98) mmHg
  Mean (SD) Automated Office-Measured Systolic Blood Pressure at Wk 8: 128.27 (16.26) mmHg
  Mean (SD) Change from Baseline at Week 8 in Automated Office-Measured Diastolic Blood Pressure: −6.43 (8.79) mmHg
  Mean (SD) Change from Baseline at Week 8 in Automated Office-Measured Systolic Blood Pressure: −17.37 (14.74) mmHg
ACEi/ARB No
  Mean Automated Office-Measured Systolic Blood Pressure at Wk 8: 131.00 mmHg
  Mean Change from Baseline at Week 8 in Automated Office-Measured Systolic Blood Pressure: −4.00 mmHg
ACEi/ARB Yes
  Mean Automated Office-Measured Systolic Blood Pressure at Wk 8: 129.24 mmHg
  Mean Change from Baseline at Week 8 in Automated Office-Measured Systolic Blood Pressure: −11.45 mmHg
AHTs 2
  Mean Automated Office-Measured Systolic Blood Pressure at Wk 8: 127.84 mmHg
  Mean Change from Baseline at Week 8 in Automated Office-Measured Systolic Blood Pressure: −10.37 mmHg
AHTs ≥3
  Mean Automated Office-Measured Systolic Blood Pressure at Wk 8: 131.82 mmHg
  Mean Change from Baseline at Week 8 in Automated Office-Measured Systolic Blood Pressure: −12.64 mmHg
Age 65-79 yr
  Mean Automated Office-Measured Systolic Blood Pressure at Wk 8: 132.81 mmHg
  Mean Change from Baseline at Week 8 in Automated Office-Measured Systolic Blood Pressure: −9.69 mmHg
Age <65 yr
  Mean Automated Office-Measured Systolic Blood Pressure at Wk 8: 120.88 mmHg
  Mean Change from Baseline at Week 8 in Automated Office-Measured Systolic Blood Pressure: −13.06 mmHg
Age ≥80 yr
  Mean Automated Office-Measured Systolic Blood Pressure at Wk 8: 123.00 mmHg
  Mean Change from Baseline at Week 8 in Automated Office-Measured Systolic Blood Pressure: −28.00 mmHg
BMI at baseline 25-30 kg/m^2
  Mean Automated Office-Measured Systolic Blood Pressure at Wk 8: 126.80 mmHg
  Mean Change from Baseline at Week 8 in Automated Office-Measured Systolic Blood Pressure: −14.60 mmHg
BMI at baseline <25 kg/m^2
  Mean Automated Office-Measured Systolic Blood Pressure at Wk 8: 130.00 mmHg
  Mean Change from Baseline at Week 8 in Automated Office-Measured Systolic Blood Pressure: −6.50 mmHg
BMI at baseline >30 kg/m^2
  Mean Automated Office-Measured Systolic Blood Pressure at Wk 8: 132.08 mmHg
  Mean Change from Baseline at Week 8 in Automated Office-Measured Systolic Blood Pressure: −8.00 mmHg
Race Black or AA
  Mean Automated Office-Measured Systolic Blood Pressure at Wk 8: 125.83 mmHg
  Mean Change from Baseline at Week 8 in Automated Office-Measured Systolic Blood Pressure: −15.83 mmHg
Race Other
  Mean Automated Office-Measured Systolic Blood Pressure at Wk 8: 130.17 mmHg
  Mean Change from Baseline at Week 8 in Automated Office-Measured Systolic Blood Pressure: −10.04 mmHg
Sex Female
  Mean Automated Office-Measured Systolic Blood Pressure at Wk 8: 127.90 mmHg
  Mean Change from Baseline at Week 8 in Automated Office-Measured Systolic Blood Pressure: −11.15 mmHg
Sex Male
  Mean Automated Office-Measured Systolic Blood Pressure at Wk 8: 132.10 mmHg
  Mean Change from Baseline at Week 8 in Automated Office-Measured Systolic Blood Pressure: −11.30 mmHg
[3]
  Mean Automated Office-Measured Systolic Blood Pressure at Wk 8: 132.36 mmHg
  Mean Change from Baseline at Week 8 in Automated Office-Measured Systolic Blood Pressure: −17.05 mmHg
[4]
  Mean Automated Office-Measured Systolic Blood Pressure at Wk 8: 124.11 mmHg
  Mean Change from Baseline at Week 8 in Automated Office-Measured Systolic Blood Pressure: −7.56 mmHg
[5]
  Mean Automated Office-Measured Systolic Blood Pressure at Wk 8: 130.60 mmHg
  Mean Change from Baseline at Week 8 in Automated Office-Measured Systolic Blood Pressure: −8.05 mmHg
[6]
  Automated Office-Measured Diastolic Blood Pressure, Week 8, mean: 68.42 mmHg
  Change from Baseline at Week 8 in Automated Office-Measured Diastolic Blood Pressure, mean: −8.13 mmHg
  Mean Automated Office-Measured Systolic Blood Pressure at Wk 8: 125.67 mmHg
  Mean Change from Baseline at Week 8 in Automated Office-Measured Systolic Blood Pressure: −12.25 mmHg
[7]
  Automated Office-Measured Diastolic Blood Pressure, Week 8, mean: 74.67 mmHg
  Change from Baseline at Week 8 in Automated Office-Measured Diastolic Blood Pressure, mean: −4.06 mmHg
